Experiment: Inhibition of NLRP3 inflammasome in mouse BMDMs assessed as reduction in pyroptosis activity preincubated with LPS for 4 hrs followed by compound addition for 30 mins prior to nigericin addition and measured after 1 hr by ELISA

## COc1c(O)cc2c(c1C)C(=O)C=C1[C@@]2(C)CC[C@@]2(C)[C@@H]3C[C@@H](C)C(=O)[C@@H](O)[C@]3(C)CC[C@]12C
  IC50: 2210 nM

## CC1=C(O)C(=O)C=C2C1=CC=C1[C@@]2(C)[C@@H](Br)C[C@@]2(C)[C@@H]3C[C@@H](C)C(=O)C[C@]3(C)CC[C@]12C
  IC50: 130 nM
